Data taken from patent US10647680B2, “Urea compound, preparation method therefor and medical use thereof” (Ancureall Pharmaceutical (Shanghai) Co., Ltd., priority 2016, dated 2020).
Like-named read-outs stand apart in the source and are kept apart here.

Legend:
[1] = test system: RS4; 11 (FLT3 wild type); assay: In vitro growth inhibition (GI50), RS4; 11; assay type: cell-based, human; settings: for GI50 value, RS4; 11 (in words) / inhibitory effect on RS4; 11: FLT3 wild type high-expressing cells RS4; for inhibitory effect on RS4; 11: 11, under high concentrations; for GI50: Homo sapiens
[2] = test system: PC-9 (EGFR exon19 E746-A750 deletion); assay: In vitro growth inhibition (GI50), PC-9; assay type: cell-based; settings: Homo sapiens; PC-9, EGFR DelE746-A750
From the text: Tumor cell line is an effective cell model for studying the inhibition of tumor cell growth or proliferation in vitro. In the present invention, a representative tumor cell line was selected to determine the cell growth inhibition activity of the present compound. All cell lines used were from ATCC, DSMZ, and the Cell Bank of the Chinese Academy of Sciences. Cell culture conditions and methods were in accordance with the requirements of each cell line. Cells were subcultured in vitro for no more than 3 passages each time, and as required, single-clone purification and identification of cell lines could be carried out.
The cell culture media used were RPMI1640 (Gibco), MEM (Gibco), McCOY'S5A (Gibco), and IMDM (Gibco). The complete medium was prepared by supplement with 5˜20% fetal calf serum (Gibco), 1% double-antibiotics (10000 units/mL penicillin and 10000 units/mL), 2 mM glutamine or 1 mM sodium pyruvate, respectively.
Human epidermal cancer cell line A431 (EGFR WT, amplification and high expression, from Shanghai Cell Bank of Chinese Academy of Sciences and ATCC), human lung cancer cell line NCI-H292 (EGFR WT, purchased from Shanghai Cell Bank of Chinese Academy of Sciences), NSCLC cell lines PC-9 and HCC827 (EGFR exon19 E746-A750 deletion, two cell lines are sensitive to the first-generation EGFR PTK inhibitor), NSCLC cell line NCI-H1975 (EGFR L858R/T790M and the first-generation EGFR inhibitor resistance, ATCC) were cultured with 1×RPMI1640 complete medium (supplement with 10% FBS), respectively.
Adherent cells were digested with 0.25% pancreatin-EDTA (Gibco). The suspension cells were collected by centrifugation. The supernatant was discarded and the cell pellet was resuspended and counted. Different cell concentrations (5˜10×10^4 cells/mL) were prepared according to the growth cycle of each cell line and then seeded on a 96-well plate (Corning), 100 μL/well. The cells were incubated overnight at 37° C., 5% CO2. The compounds were added to the cells on the second day with 2 wells in parallel. The final concentration of organic solvent shall not exceed 1%. The cells were continually incubated for 3 to 5 days, and then subjected to MTT assay.
The compound of the present invention and the control compound were dissolved in DMSO (Sigma) respectively, with the purity of more than 98%. The compound was stored in a concentration of 10 mM at −20° C. and diluted to 2- or 10-fold series prior to use.
Dojindo CCK8 reagent kit was used as MTT assay. THERMO […] FC meter was used as microplate reader.
For adherent cells, culture medium was removed and immediately replaced with the fresh prepared medium which contains 10% CCK8 reagent (100 μL/well). For the suspension cells, CCK8 was directly added to 10% of the final concentration. The cells were continually incubated for 1˜4 h. When a dark yellow color could be observed in the solvent control wells, the absorbance value at OD450 nm was measured and the cell growth rate was calculated according to the following formula: Cell Growth Rate (%)=100*(T−T0)/(C−T0) T=optical density of drug treatment cell well—optical density of blank control well; T0=optical density of cell well before drug treatment—optical density of blank control well; C=optical density of cell well of solvent control group—optical density of blank control well. The concentration value of 50% inhibition of cell growth (GI50) was calculated according to the drug concentration and cell growth rate curve. The experiment was independently repeated 1˜3 times, and subject to biological statistical analysis. 4. Experimental Results
Tumor cell growth inhibition test was performed by selecting representative compounds (compounds 4, 11, 12, 16, 27, 68, 71, 77, 79, 89 and 116 of the present invention). The initial concentration of the compound was 5,000 nM, then it was serially diluted by 2-fold or 10-fold to 0.01 nM. The GI50 value of each test compound was calculated according to the GI50 assay and calculation method. […]

[3] = test system: RAMOS (positive expression of Brutons tyrosine protein kinase); assay: In vitro growth inhibition (GI50), RAMOS; assay type: cell-based; settings: Homo sapiens, Cell lines of leukemia, read-out: GI 50 Ramos BTK
[4] = RS4-11, Cell lines of leukemia, read-out: GI 50 RS4: 11 FLT3 (WT)
[5] = RS4, 11, FLT3 WT, read-out: GI50
[6] = FLT3 wild-type high expressing cell RS4, 11, Table 3, read-out: GI50 value, RS4, 11

SMILES	GI50 value, RS4; 11 (in words) [1]; 11	GI50 [1, 4] [nM]	GI50 [1, 5] [nM]	GI50 [2] [nM]	GI50 [3] [nM]	GI50 [1, 6] [nM]	inhibitory effect on RS4; 11 [1]
CC(C)(C)c1cc(NC(=O)Nc2ccc(-n3cnc4ccc(OCCN5CCOCC5)cc43)cc2)no1 [Compound 27, 1-(5-tert-butyl-isoxazol-3-yl)-3-{4-[6-(2morpholin-4-yl-ethoxyl)-benzimidazol-1-yl]-phenyl}-urea]	micromolar range	> 1000	2380	> 2500	> 1000	–	no obvious inhibitory effect
CC(C)(C)c1cc(NC(=O)Nc2ccc(-n3cnc4cc(OCCO)ccc43)cc2)no1 [Compound 11, 1-(5-tert-butyl-isoxazol-3-yl)-3-{4-[5-(2-hydroxy-ethoxyl)-benzimidazol-1-yl]-phenyl]-urea]	–	10 to 100	57.4	> 2500	> 1000	50 to 800	–
CC(C)(C)c1cc(N)n(C(=O)Nc2ccc(-n3cnc4ccccc43)cc2)n1 [Compound 116, 5-amino-3-tert-butyl-pyrazol-1-carboxylic acid (4-benzimidazol-1-yl-phenyl)-amide]	micromolar range	> 1000	2100	> 2500	> 1000	–	no obvious inhibitory effect
CC(C)(C)c1cc(NC(=O)Nc2ccc(-n3cnc4cc(OCCN5CCOCC5)ccc43)cc2)no1 [Compound 16, 1-(5-tert-butyl-isoxazol-3-yl)-3-{4-[5-(2-morpholin-4-yl-ethoxyl)-benzimidazol-1-yl]-phenyl}-urea]	micromolar range	> 1000	1750	> 2500	> 1000	–	no obvious inhibitory effect
COCCOc1ccc2c(c1)ncn2-c1ccc(NC(=O)Nc2cc(C(C)(C)C)n[nH]2)cc1 [Compound 77, 1-(5-tert-butyl-2H-pyrazol-3-yl)-3-{4-[5-(2-methoxyl-ethoxyl)-benzimidazol-1-yl]-phenyl}-urea]	micromolar range	> 1000	2490	> 2500	> 1000	–	no obvious inhibitory effect
CC(C)(C)c1cc(NC(=O)Nc2ccc(-n3cnc4cc(O)ccc43)cc2)no1 [Compound 4, 1-(5-tert-butyl-isoxazol-3-yl)-3-[4-(5-hydroxy-benzimidazol-1-yl)-phenyl]-urea]	–	100 to 1000	234	> 2500	100 to 1000	50 to 800	–

More lines, main results first:

GI50 value, RS4; 11 (in words) [1]; 11	GI50 [1, 4] [nM]	GI50 [1, 5] [nM]	GI50 [2] [nM]	GI50 [3] [nM]	GI50 [1, 6] [nM]	SMILES	inhibitory effect on RS4; 11 [1]
micromolar range	> 1000	3500	> 2500	> 1000	–	CC(C)(C)c1cc(NC(=O)Nc2ccc(-n3cnc4ccccc43)cc2)[nH]n1 [Compound 68, 1-(4-benzimidazol-1-yl-phenyl)-3-(5-tert-butyl-2H-pyrazol-3-yl)-urea]	no obvious inhibitory effect
micromolar range	> 1000	2090	> 2500	> 1000	–	CC(C)(C)c1cc(NC(=O)Nc2ccc(-n3cnc4cc(OCCN5CCOCC5)ccc43)cc2)[nH]n1 [Compound 89, 1-(5-tert-butyl-2H-pyrazol-3-yl)-3-{4-[5-(2-morpholin-4-yl-ethoxyl)-benzimidazol-1-yl]-phenyl}-urea]	no obvious inhibitory effect
micromolar range	> 1000	2750	> 2500	> 1000	–	COc1ccc2c(c1)ncn2-c1ccc(NC(=O)Nc2cc(C(C)(C)C)n[nH]2)cc1 [Compound 71, 1-(5-tert-butyl-2H-pyrazol-3-yl)-3-[4-(5-methoxyl-benzimidazol-1-yl)-phenyl]-urea]	no obvious inhibitory effect
–	> 1000	768	> 2500	> 1000	50 to 800	CC(C)(C)c1cc(NC(=O)Nc2ccc(-n3cnc4cc(OCCO)ccc43)cc2)[nH]n1 [Compound 79, 1-(5-tert-butyl-2H-pyrazol-3-yl)-3-{4-[5-(2-hydroxy-ethoxyl)-benzimidazol-1-yl]-phenyl]urea]	–
